Columns and labels:
RAW 264.7 cells [1] = experiment: Suppressive activity for IL-6 production induced by LPS (sandwich enzyme immunoassay); assay type: cell-based; details: compound a 1.5, 3, 6, 12 μM; compound b 3, 6, 12, 24 μM; LPS 15 hours
Experimental: RAW 264.7 cells (ATCC TIB 71) were suspended in Dulbecco's modified Eagle's medium (manufactured by Bio Whittaker, 12-604F) containing 10% fetal bovine serum (manufactured by GIBCO) so as to have a concentration of 4×10^5 cells/ml, and the suspension was put to each well of a 48-well microtiter plate in an amount of 500 μl per well. The cells were cultured at 37° C. in the presence of 5% carbon dioxide gas. After 24 hours, the medium was exchanged with Ultra CHO medium (manufactured by Bio Whittaker, 12-724Q). The compound a (dimethyl sulfoxide solution) was added to each well so as to have a concentration of 1.5, 3, 6, or 12 μM, or the compound b (dimethyl sulfoxide solution) was added to each well so as to have a concentration of 3, 6, 12, or 24 μM. After additional 4 hours of culture, a 100 μg/ml aqueous lipopolysaccharide (LPS, manufactured by Sigma, L-2010) solution was added to each well in an amount of 5 μl per well, and the cells were cultured for 15 hours. Thereafter, the supernatant of the medium was collected. The content of interleukin 6 (IL-6) in the supernatant of the medium was determined with a sandwich enzyme immunoassay (manufactured by genzyme TECHNE, 4922). In addition, there were set a group without addition of the compounds a and b as a positive control, and a group without addition of LPS as a negative control. All of the determinations were carried out twice. […]

[2] = test system: PC12 cells derived from rat adrenal medulla pheochromocytoma; experiment: Suppressive activity for NO toxicity (SNP) in PC12 cells, MTT; assay type: cell-based; details: 10 μM compound b, 50 μM SNP, 66 hours, control without compound and SNP = 100, SNP alone 48.1
Experimental: (2) The suppressive activity of the compound b for NO toxicity was assayed in accordance with the following method. PC12 cells derived from rat adrenal medulla pheochromocytoma were suspended in DMEM medium containing 10% fetal bovine serum so as to have a concentration of 1.5×10^5 cells/ml. The suspension was put to each well of a 96-well plate in an amount of 0.1 ml per well, and cultured at 37° C. in the presence of 5% carbon dioxide gas. After 24 hours of culture, the medium was removed, and exchanged with DMEM medium containing 10 μM of the compound b and 10% fetal bovine serum. After the cells were cultured for 2 hours, SNP was added thereto so as to have a concentration of 50 μM, and the cells were cultured for 66 hours. After the termination of the culture, the MTT determination was carried out in the same manner as in item (1) of Example 4, and the viability ratio (%) of cells was calculated. All of the determinations were carried out three times.

[3] = test system: PC12 cells (CRL-1721) derived from rat adrenal medulla pheochromocytoma, differentiated into neuron-like cells; experiment: Neuronal protection from NO toxicity (SNP) in NGF-differentiated PC12 cells, MTT; assay type: cell-based; details: 10 μM compound b, 50 μM SNP, 48 hours, control without compound and SNP = 100, SNP alone 59.1
Experimental: (1) The suppressive activity for NO toxicity of the compound b was assayed in accordance with the following method. PC12 cells (CRL-1721) derived from rat adrenal medulla pheochromocytoma were suspended in DMEM medium (manufactured by Bio Whittaker) containing 10% fetal bovine serum (manufactured by Bio Whittaker) so as to have a concentration of 1×10^5 cells/ml. The suspension was put in each well of a 96-well plate in an amount of 0.1 ml per well, and the cells were cultured at 37° C. in the presence of 5% carbon dioxide gas. After the cells were cultured for 24 hours, the medium was removed and exchanged with DMEM medium containing 10 ng/ml of NGF (manufactured by TAKARA BIO Inc.) and 10% fetal bovine serum. PC12 cells were cultured for 3 days, and differentiated into neuron-like cells. After the culture, the medium was removed and exchanged with DMEM medium containing 10 μM of the compound b, 10 ng/ml of NGF, and 10% fetal bovine serum. […] Solubilized formazan was determined at a wavelength of 590 nm (control wavelength of 630 nm). […] Viability ratio (%) of cells was calculated from MTT found values of each test group by defining the MTT value of the control group (group not containing the compound b and SNP) as 100.

[4] = target: T1, aldose reductase derived from human muscle cells (Homo sapiens, UniProt P15121); experiment: Inhibitory activity for aldose reductase (NADPH absorbance at 340 nm, methylglyoxal substrate); assay type: biochemical
T1 construct: purchased Wako Pure Chemical Industries
Experimental: (1) Inhibitory activities for aldose reductase of the compounds a and b were measured by the following method. Twenty microliters of 100 mM methylglyoxal was added to 10 μl of the compound a or b (dissolved in a 50% aqueous dimethyl sulfoxide solution) as a sample, 100 μl of 0.2 M phosphate buffer (pH 6.2), 20 μl of 1 mM NADPH (phosphate buffer), 10 μl of a solution of aldose reductase derived from human muscle cells (0.1 U/ml, manufactured by Wako Pure Chemical Industries, phosphate buffer). After 30 seconds passed, change in absorbance of NADPH at 340 nm was determined for 180 seconds. A 50% aqueous dimethyl sulfoxide solution was used as a negative control in place of the sample. In addition, the absorbance was determined using distilled water as a blank of each sample in place of the methylglyoxal solution. The found values are expressed as an average of the values in two experimental values. The inhibitory ratio (%) for aldose reductase was calculated in accordance with the following formula. Inhibitory Ratio (%)=[1-[(ΔAs−ΔAsb)/(ΔAc−ΔAcb)]]×100
Here, ΔAs and ΔAc are changes in absorbance per 1 minute of a sample solution, and a negative control solution, respectively, and ΔAsb and ΔAcb are changes in absorbance per 1 minute of blank of a sample solution, and a negative control solution, respectively.

RAW 264.7 cells [5] = experiment: Suppressive activity for NO production induced by LPS (NO2- in medium); assay type: cell-based; details: compound a 1.5, 3, 6, 12 μM; compound b 3, 6, 12, 24 μM; LPS 15 hours
Experimental: RAW 264.7 cells (ATCC TIB 71) were suspended in Dulbecco's modified Eagle's medium (manufactured by Bio Whittaker, 12-604F) containing 10% fetal bovine serum (manufactured by GIBCO), so as to have a concentration of 4×10^5 cells/ml, and the suspension was put to each well of a 48-well microtiter plate in an amount of 500 μl per well. The cells were cultured at 37° C. in the presence of 5% carbon dioxide gas. After 24 hours, the medium was exchanged with Dulbecco's modified Eagle's medium (manufactured by Bio Whittaker, 12-917F) containing 10% fetal bovine serum (manufactured by GIBCO), 2 mM L-glutamine (manufactured by Life Tech Oriental Co., Ltd., 25030-149) without containing phenol red. The compound a (dimethyl sulfoxide solution) was added to each well so as to have a concentration of 1.5, 3, 6, or 12 μM, or the compound b (dimethyl sulfoxide solution) was added to each well so as to have a concentration of 3, 6, 12, or 24 μM. […] Thereafter, the concentration of NO2^− which was produced by oxidation of NO in the medium was determined. […] Thereafter, absorbance at 540 nm was determined. The concentration of NO2 − in the medium was calculated from a calibration curve prepared from known concentrations of NaNO2. […]

CC(C)=CCCC1(C)Oc2c(C(=O)/C=C/c3ccc(O)cc3)ccc(O)c2CC1O (single isomer, unassigned) [Compound b, (E)-1-(3,4,-dihydro-3,5-dihydroxy-2-(3-isohexeneyl)-2-methyl-2H-1-benzopyran-8-yl)-3-(4-hydroxyphenyl)-2-propene-1-one]
Inhibition of induction of IL-6 production by LPS (IL-6 in supernatant, FIG. 8) (RAW 264.7 cells [1]): inhibited the induction of IL-6 production by LPS in a concentration-dependent manner
Viability Ratio (%) of Cells [2]: 91.0%
Viability Ratio (%) of Cells [3]: 87.4%
Inhibitory Ratio (%) for Aldose Reductase ([4]; final concentration 2.5 μM): 35.1%
Inhibitory Ratio (%) for Aldose Reductase ([4]; final concentration 5 μM): 50.6%
Inhibitory Ratio (%) for Aldose Reductase ([4]; final concentration 10 μM): 66.8%
Inhibitory Ratio (%) for Aldose Reductase ([4]; final concentration 20 μM): 79.1%
Suppression of induction for NO production by LPS (NO2- concentration in medium, FIG. 7) (RAW 264.7 cells [5]): supppressed the induction for NO production by LPS in a concentration-dependent manner

CC12CCC(O)C(C)(C)C1Cc1c(O)ccc(C(=O)/C=C/c3ccc(O)cc3)c1O2 (single isomer, unassigned) [Compound a, (E)-1-(5,6,7,8,8a,10a-hexahydro-1,7-dihydroxy-8,8,10a-trimethyl-9H-xanthen-4-yl)-3-(4-hydroxyphenyl)-2-propen-1-one]
Inhibition of induction of IL-6 production by LPS (IL-6 in supernatant, FIG. 8) (RAW 264.7 cells [1]): inhibited the induction of IL-6 production by LPS in a concentration-dependent manner
Inhibitory Ratio (%) for Aldose Reductase ([4]; final concentration 2.5 μM): 33.3%
Inhibitory Ratio (%) for Aldose Reductase ([4]; final concentration 5 μM): 48.4%
Inhibitory Ratio (%) for Aldose Reductase ([4]; final concentration 10 μM): 65.7%
Inhibitory Ratio (%) for Aldose Reductase ([4]; final concentration 20 μM): 77.2%
Suppression of induction for NO production by LPS (NO2- concentration in medium, FIG. 7) (RAW 264.7 cells [5]): supppressed the induction for NO production by LPS in a concentration-dependent manner

From US7361774B2, “Chalcone compound” (Takara Bio Inc., priority 2002, dated 2008)
